Laboratory results published in patent publication US5229410A, “6-substituted-hexahydrobenz[cd]indoles” (Eli Lilly and Company, priority 1991, dated 1993).

Target: T1, serotonin 1A receptor (Rattus norvegicus, UniProt P19327)
T1 construct: from tissue; host or cells: cerebral cortex of male Sprague-Dawley rats (synaptosomal membranes)
T1 sequence (P19327 1-422): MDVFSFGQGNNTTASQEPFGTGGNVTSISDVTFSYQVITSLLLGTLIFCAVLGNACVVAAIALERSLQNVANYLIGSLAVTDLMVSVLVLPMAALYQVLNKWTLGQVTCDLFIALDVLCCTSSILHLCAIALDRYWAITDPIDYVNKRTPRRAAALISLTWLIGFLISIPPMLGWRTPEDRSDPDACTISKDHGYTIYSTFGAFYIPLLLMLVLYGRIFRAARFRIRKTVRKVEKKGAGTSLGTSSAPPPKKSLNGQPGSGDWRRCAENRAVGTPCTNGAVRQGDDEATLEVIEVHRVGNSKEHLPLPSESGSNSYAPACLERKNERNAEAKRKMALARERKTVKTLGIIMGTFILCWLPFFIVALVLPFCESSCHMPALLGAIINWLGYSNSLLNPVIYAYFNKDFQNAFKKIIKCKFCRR
Experiment: serotonin 1A receptor binding (3H-8-OH-DPAT, rat cerebral cortex synaptosomal membranes)
Design: species or system Male Sprague-Dawley rats
Conditions: 0.4 nM 3H-8-OH-DPAT, pH 7.4, 37° C., 10 min, read-out: IC50 (concentration necessary to inhibit the binding of 3H-8-OH-DPAT by 50%)
Experimental: The compound of Example 14 was evaluated for its ability to interact with serotonin 1A receptor using the following procedure which is generally set forth in Wong et al., J. Neural Transm., 71, 207-218 (1988). Male Sprague-Dawley rats (110-150 g) from Harlan Industries (Cumberland, Ill.) were fed a Purina Chow ad libitum for at least 3 days before being used in the studies. Rats were killed by decapitation. The brains were rapidly removed, and the cerebral cortices were dissected out at 4° C.
Brain tissues were homogenized in 0.32M sucrose. After centrifugation at 1000×g for 10 min and then at 17,000×g for 20 min, a crude synaptosomal fraction was sedimented. The pellet was suspended in 100 vol of 50 mM Tris-HCl, pH 7.4, incubated at 37° C. for 10 min, and centrifuged at 50,000×g for 10 min. The process was repeated and the final pellet was suspended in ice-chilled 50 mM Tris-HCl, pH 7.4. […]
Binding of (^3 H-8-OH-DPAT) was performed according to the previously described method [Wong et al., J. Neural Transm. […] Radioactivity was measured with a liquid scintillation spectrometer. […] Specific binding of ^3 H-8-OH-DPAT is defined as the difference of radioactivity bound in the absence and in the presence of 10 μM unlabeled 8-OH-DPAT. […]

C#Cc1ccc2c3c1C[C@H](N(CCC)CCC)C[C@@H]3CN2 [Example 14, (2aS,4R)-6-ethynyl-4-(di-n-propylamino)-1,2,2a,3,4,5-hexahydrobenz[cd]indole]
IC50: 0.5 nM
